Assay [1] relates to Human alphaherpesvirus 2. Put plainly: Concentration required to reduce HSV-2 virus induced cytopathogenicity in rabbit cell kidney culture (Lyons cells). In kind it is functional, organism-based. A general note: Cytopathic effects are the visible damage that an infection or toxin causes in cultured cells.
The test system of assay [2] is Human alphaherpesvirus 1. The assay can be described thus: Concentration required to reduce HSV-1 virus induced cytopathogenicity in rabbit cell kidney culture (KOS cells). It is filed as functional, organism-based.
In assay [3] the test system is Human alphaherpesvirus 1. The assay can be described thus: Concentration required to reduce HSV-1 virus induced cytopathogenicity in rabbit cell kidney culture (F cells). It is filed as functional, organism-based.
Assay [4] has as its system Human alphaherpesvirus 2. The assay can be described thus: Concentration required to reduce HSV-2 virus induced cytopathogenicity in rabbit cell kidney culture (196 cells). In kind it is functional, organism-based.
The test system of assay [5] is Human alphaherpesvirus 1. The assay can be described thus: Concentration required to reduce HSV-1 virus induced cytopathogenicity in rabbit cell kidney culture (McIntyre cells). In kind it is functional, organism-based.
Assay [6] relates to Human alphaherpesvirus 2. Put plainly: Concentration required to reduce HSV-2 virus induced cytopathogenicity in rabbit cell kidney culture (G cells). In kind it is functional, organism-based.
Assay [7] deals with Vesicular stomatitis virus. Put plainly: Concentration required to reduce vesicular stomatitis virus induced cytopathogenicity in rabbit cell kidney culture. In kind it is functional, organism-based.
The species named for assay [8] is Oryctolagus cuniculus. Put plainly: Minimum cytotoxic concentration causing microscopically detectable alteration of normal cell morphology of rabbit kidney cells. In kind it is functional.
The species named for assay [9] is Oryctolagus cuniculus. Put plainly: Minimum cytotoxic concentration causing microscopically detectable alteration of normal cell morphology of rabbit kideny cells. More on the design: unit not given here. In kind it is functional.

Molecules are shown by their SMILES.

`O=c1nc(-n2cncn2)c(/C=C/Br)cn1[C@H]1C[C@H](O)[C@@H](CO)O1`: the Concentration in the assay with Human alphaherpesvirus 2 [1] is 70 µg/mL; with Human alphaherpesvirus 1 [2] it was 0.07 µg/mL; in the assay on Human alphaherpesvirus 1 [3], 0.07 µg/mL; with Human alphaherpesvirus 2 [4], above 200 µg/mL; in the assay on Human alphaherpesvirus 1 [5], 0.1 µg/mL; with Human alphaherpesvirus 2 [6], 20 µg/mL. Also, the Concentration in assay [7] was above 200 µg/mL.

`O=c1[nH]c(=O)n([C@H]2C[C@H](O)[C@@H](CO)O2)cc1/C=C/Br` [BRIVUDINE]: the Concentration in the assay on Human alphaherpesvirus 2 [1] amounted to 7 µg/mL; in the assay with Human alphaherpesvirus 1 [2], 0.02 µg/mL; with Human alphaherpesvirus 1 [3], 0.02 µg/mL; with Human alphaherpesvirus 2 [4] it was 30 µg/mL; with Human alphaherpesvirus 1 [5] it was 0.02 µg/mL; in the assay on Human alphaherpesvirus 2 [6], 2 µg/mL. The compound further displayed a Concentration in assay [7] above 400 µg/mL. For the same compound, the MCC in the assay filed under Oryctolagus cuniculus [8] is on record as above 400.

Turning to `O=c1nc(-n2cncn2)c(/C=C/Br)cn1C1CC(O)C(CCl)O1` (stereo not drawn), the Concentration in the assay with Human alphaherpesvirus 2 [1] was above 100 µg/mL; in the assay on Human alphaherpesvirus 1 [2] it was 70 µg/mL; in the assay on Human alphaherpesvirus 1 [3], above 100 µg/mL; in the assay on Human alphaherpesvirus 2 [4], above 100 µg/mL; in the assay on Human alphaherpesvirus 1 [5], above 100 µg/mL; in the assay on Human alphaherpesvirus 2 [6], above 100 µg/mL. Moreover, the Concentration in [7] is above 100 µg/mL. Further, the MCC in the assay listed under Oryctolagus cuniculus [9] is above 100.

For the compound `Cc1cn(C2CC(O)C(CCl)O2)c(=O)nc1-n1cncn1` (stereo not drawn), the Concentration with Human alphaherpesvirus 2 [1], in the assay on Human alphaherpesvirus 1 [2], with Human alphaherpesvirus 1 [3], in the assay on Human alphaherpesvirus 2 [4], in the assay with Human alphaherpesvirus 1 [5] and in the assay on Human alphaherpesvirus 2 [6] was above 10 µg/mL each time. Moreover, the Concentration in assay [7] is above 10 µg/mL. Further, in the assay filed under Oryctolagus cuniculus [9], the MCC is above 10.

Turning to `Nc1nc(=O)n([C@H]2C[C@H](O)[C@@H](CO)O2)cc1/C=C/Br`, the Concentration was above 400 µg/mL with Human alphaherpesvirus 2 [1]; 0.1 µg/mL with Human alphaherpesvirus 1 [2]; 0.2 µg/mL in the assay with Human alphaherpesvirus 1 [3]; above 400 µg/mL in the assay with Human alphaherpesvirus 2 [4]; 0.2 µg/mL in the assay with Human alphaherpesvirus 1 [5]; 20 µg/mL in the assay with Human alphaherpesvirus 2 [6]. This compound also displayed a Concentration in [7] above 400 µg/mL. In addition, in the assay listed under Oryctolagus cuniculus [9], the MCC is above 400.

As to `CC(=O)OC[C@H]1O[C@@H](n2cc(C)c(-n3cncn3)nc2=O)C[C@@H]1OC(C)=O`, the Concentration with Human alphaherpesvirus 2 [1], with Human alphaherpesvirus 1 [2], with Human alphaherpesvirus 1 [3], in the assay on Human alphaherpesvirus 2 [4], with Human alphaherpesvirus 1 [5] and with Human alphaherpesvirus 2 [6] was above 40 µg/mL each time. Further, in assay [7], the Concentration was above 40 µg/mL.

Turning to `CC(=O)OC[C@H]1O[C@@H](n2cc(/C=C/Br)c(-n3cncn3)nc2=O)C[C@@H]1OC(C)=O`, the Concentration in the assay with Human alphaherpesvirus 2 [1] was 20 µg/mL; in the assay with Human alphaherpesvirus 1 [2], 0.1 µg/mL; in the assay with Human alphaherpesvirus 1 [3] it was 0.2 µg/mL; in the assay with Human alphaherpesvirus 2 [4] it was 20 µg/mL; with Human alphaherpesvirus 1 [5] it was 0.07 µg/mL; in the assay with Human alphaherpesvirus 2 [6], 20 µg/mL. In assay [7], this compound gave a Concentration above 200 µg/mL.

As for `Cc1cn([C@H]2C[C@H](O)[C@@H](CO)O2)c(=O)nc1-n1cncn1`, the Concentration is 20 µg/mL in the assay on Human alphaherpesvirus 2 [1]; above 40 µg/mL with Human alphaherpesvirus 1 [2]; above 40 µg/mL in the assay with Human alphaherpesvirus 1 [3]; 20 µg/mL with Human alphaherpesvirus 2 [4]; 20 µg/mL with Human alphaherpesvirus 1 [5]; 20 µg/mL in the assay with Human alphaherpesvirus 2 [6]. The compound also had a Concentration in assay [7] above 40 µg/mL.

For `CC(=O)OC[C@H]1O[C@@H](n2cc(/C=C/Br)c(=O)[nH]c2=O)C[C@@H]1OC(C)=O`, the Concentration with Human alphaherpesvirus 2 [1] turned out to be 40 µg/mL; in the assay on Human alphaherpesvirus 1 [2], 0.1 µg/mL; with Human alphaherpesvirus 1 [3], 0.1 µg/mL; in the assay with Human alphaherpesvirus 2 [4] it was 100 µg/mL; in the assay with Human alphaherpesvirus 1 [5] it was 0.2 µg/mL; with Human alphaherpesvirus 2 [6], 20 µg/mL. This compound gave a Concentration in [7] above 300 µg/mL. In addition, the MCC in the assay listed under Oryctolagus cuniculus [9] is reported as above 300.

Values taken from ChEMBL document CHEMBL1123958, “Synthesis and antiviral properties of (E)-5-(2-bromovinyl)-2'-deoxycytidine-related compounds” (J Med Chem, 1988).
